Laboratory results taken from patent US6699686B1, “Modified nuclear glucocorticoid receptor, fusion protein, and DNA fragments coding for said receptor and said fusion protein” (Association pour le Development de la Recherche en …, priority 1996, dated 2004).

Experiments:
Cre-LBD[GR(I747/T)] = biological target: T1, Cre-LBD[GR(I747/T)] (Homo sapiens, UniProt P04150, I747T); test: PCR test of recombinase activity in HeLa cells cotransfected with pCre-LBD[GR(I747/T)] and pRXRα(LNL); format: cell-based; settings: ligand 10^−7 M, 72 hours
T1 construct: the region containing the mutated LBD of HG1 [aa 500-777]; Cre recombinase aa 1-343 (bacteriophage P1); F region of the human estrogen receptor (aa 553-595); expressed in transfected cells
T1 sequence (P04150 500-777 I747T): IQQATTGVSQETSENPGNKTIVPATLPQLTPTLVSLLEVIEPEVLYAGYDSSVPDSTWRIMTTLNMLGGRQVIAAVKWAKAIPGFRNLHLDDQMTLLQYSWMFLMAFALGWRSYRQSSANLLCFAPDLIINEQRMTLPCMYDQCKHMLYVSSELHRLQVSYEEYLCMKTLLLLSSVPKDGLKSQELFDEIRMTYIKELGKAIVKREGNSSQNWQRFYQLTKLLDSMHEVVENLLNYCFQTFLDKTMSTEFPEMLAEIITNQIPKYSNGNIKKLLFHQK
Protocol: [optionally cotransfected with 5 μg of the vector pRXRα^(LNL) for the HeLa cells] with the aid of an electroporator (Bio-Rad gene pulser), set at 200 V and 960 μF. The cells were then inoculated at 10^6 cells per 100 mm dish and treated, if necessary, with ligands.
The products of the reaction were separated on acrylamide gel and stained with ethidium bromide. Lane 1 corresponds to the loading of the 1 kb ladder size marker (GibcoBRL).

hGR(I747/T) = biological target: T2, hGR(I747/T) (Homo sapiens, UniProt P04150, I747T); test: Transcriptional activation of pTAT-tk-Luc luciferase reporter in transiently transfected CV-1 cells; format: cell-based; settings: CV-1 cells, pTAT-tk-Luc; for Luciferase activity % hGR (I747/T): 24 h ligand, mean of three independent assays; for EC50 hGR (I747/T): ligand concentration giving 50% of maximum transcriptional response
T2 construct: The same shift was observed as with the complete GR (I747/T) mutant; expressed in transfected cells
T2 sequence (P04150 1-777 I747T): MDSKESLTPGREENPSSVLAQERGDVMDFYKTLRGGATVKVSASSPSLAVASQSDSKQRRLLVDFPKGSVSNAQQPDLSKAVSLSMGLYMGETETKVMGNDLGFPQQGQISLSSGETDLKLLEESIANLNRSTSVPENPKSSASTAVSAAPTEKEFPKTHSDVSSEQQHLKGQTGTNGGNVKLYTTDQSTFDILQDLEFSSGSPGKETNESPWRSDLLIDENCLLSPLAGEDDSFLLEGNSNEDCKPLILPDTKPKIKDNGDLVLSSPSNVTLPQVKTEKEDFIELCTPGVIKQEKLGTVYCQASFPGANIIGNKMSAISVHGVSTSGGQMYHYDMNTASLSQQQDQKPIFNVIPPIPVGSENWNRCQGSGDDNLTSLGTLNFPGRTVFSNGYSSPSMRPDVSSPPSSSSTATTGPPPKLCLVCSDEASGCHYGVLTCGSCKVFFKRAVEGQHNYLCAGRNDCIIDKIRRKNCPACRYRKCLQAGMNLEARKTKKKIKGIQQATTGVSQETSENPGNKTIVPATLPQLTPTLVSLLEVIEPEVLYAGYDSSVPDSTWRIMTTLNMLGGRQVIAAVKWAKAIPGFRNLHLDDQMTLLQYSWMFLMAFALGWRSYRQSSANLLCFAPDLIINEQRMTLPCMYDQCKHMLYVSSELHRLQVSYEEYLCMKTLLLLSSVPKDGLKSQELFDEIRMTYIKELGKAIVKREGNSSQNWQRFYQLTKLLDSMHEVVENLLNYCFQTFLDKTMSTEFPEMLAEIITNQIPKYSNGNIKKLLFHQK
Protocol: The receptors were transiently expressed in GR-free CV-1 cells, conjointly with a luciferase reporter gene under the control of the tyrosine aminotransferase promoter (pTAT-tk-Luc).
After transfection, the cells were incubated for 24 hours with increasing concentrations of Dex, and they were then subjected to an assay of the β-galactosidase and luciferase activities, as described in “Materials and Methods”. The luciferase activity was normalized with the β-galactosidase activity, and the value obtained in the absence of ligand was subtracted for each point. The results were expressed as a percentage of the maximum luciferase activity obtained for each receptor. Each point is the mean±standard deviation of the mean of four separate determinations carried out in duplicate. […] The [^3H] steroid attached was measured after treatment with dextran-coated charcoal. The results presented are those for a single assay carried out in duplicate and representative of three separate assays.
Co-transfections were carried out and dose-response curves were constructed as described in FIG. 2. […] The assays of luciferase and β-galactosidase activity were carried out as described in “Materials and Methods”. The mean values of three independent assays are given in this table. nm=not measurable.
The CV-1 and Cos-7 cells were cultured in Dulbeco's modified Eagle's medium (DMEM) containing 10% (v/v) of fetal calf serum (FCS) (Gibco, Grand Island, N.Y.), in a humidified atmosphere containing 5% CO2. The HeLa cells were cultured under the same conditions. Transient transfections were carried out in 6-well multiplates according to the calcium phosphate procedure already described (42). A reference recombinant plasmid, pCMV-βgal, expressing bacterial β-galactosidase, was transfected conjointly with the receptor expression vector and the corresponding reporter gene so as to correct possible variations in he transfection efficiency. The precipitate was removed by washing after 24 hours, and the cells were kept in DMEX without FCS but containing hormone. After another 24 hours, the cells were rinsed and lysed for 15 minutes with 0.3 ml of lysis buffer [25 mM Tris.phosphate, pH 7.8, 8 mM […], 1% Triton X100, 10% glycerol (48)]. The corresponding luciferase activity as determined on an aliquot fraction (0.1 ml), by evaluation of the luminescence peak (for an integration time of 15 seconds), after injection of 0.1 ml of 1 mM luciferin in an LKB luminometer. The β-galactosidase was determined by the method modified by Bocquel et al. (49), for controlling the efficiency of each transfection.
The reporter gene pTAT-tk-Luc was provided by D. Gagne and was constructed as follows: an intermediate plasmid pTAT was first generated by insertion of the 966 bp EcoRI-BamHI segment obtained from pKT531 [offered freely by T. Grande (50)] into the corresponding sites of the vector pUC19 (Pharmacia). The fragment containing the sequence coding for the firefly luciferase and the thymidine kinase (tk) minimal promoter obtained from the Herpes simplex virus was isolated in the form of a BamHI fragment from pvit-tk-Luc (51) and inserted, downstream of the TAT promoter, into the corresponding site of pTAT. The reporter plasmid pGRE-tk-Luc was constructed by ligation of the fragment of HindIII-BglII digestion of pGRE-tk-CAT (52), which contains a synthetic GRE (AGAACAcagTGTTCT) upstream of the tk minimal promoter, into the HindIII-BglII sites of pLuc (53). The reporter gene p(17M)5-βGlob-Luc has been previously described (54). The reporter plasmid p(17M)5-tata-Luc was constructed from the plasmid p(17M)5-tata-CAT (55) by digestion with XhoI-BamHI and isolation of the fragment containing (17M5)-tata. This fragment was then inserted into the vector pGL2 (Promega) digested with the same restriction enzymes.

Row | Compound | recombinase activity (PCR band of recombinant fragment) (Cre-LBD[GR(I747/T)]) | transactivation by the I747/T mutant receptor compared with wild-type receptor (hGR(I747/T)) | Luciferase activity % hGR (I747/T) (hGR(I747/T)) | EC50 hGR (I747/T) (hGR(I747/T))
1 | C[C@]12CCC(=O)C=C1CC[C@@H]1[C@@H]2[C@@H](O)C[C@]2(C=O)[C@@H](C(=O)CO)CC[C@@H]12 [Aldosterone, aldosterone] | only the fragment corresponding to the wild-type allele can be detected | suppressed | 0% | nM
2 | C[C@]12C[C@H](O)[C@H]3[C@@H](CCC4=CC(=O)CC[C@@]43C)[C@@H]1CC[C@@H]2C(=O)CO [Corticosterone, corticosterone] | only the fragment corresponding to the wild-type allele can be detected | suppressed | 0% | nM
3 | C[C@]12CCC(=O)C=C1CC[C@@H]1[C@@H]2[C@@H](O)C[C@@]2(C)[C@H]1CC[C@]2(O)C(=O)CO [Cortisol, cortisol] | only the fragment corresponding to the wild-type allele can be detected | greatly reduced | 15% | –
4 | C[C@@H]1C[C@H]2[C@@H]3CCC4=CC(=O)C=C[C@]4(C)[C@@]3(F)[C@@H](O)C[C@]2(C)[C@@]1(O)C(=O)CO [Dexamethasone, dexamethasone] | – | – | 100% | –
